# Source: patent US20250214991A1 (Oncopia Therapeutics, Inc. d/b/a/ SK Life Science Labs, priority 2022, published 2025)
# Legend:
# IKZF2 = IKZF2 (Homo sapiens (Human), UniProt Q96SW2+Q9UKS7); experiment: In vitro IKZF2 HiBit Assay (HEK293T Flp-in-HiBiT cells); assay type: cell-based; details: HEK293T Flp-in-HiBiT cells, 6 hrs incubation; for DC50: read-out: IKZF2 HiBit DC50; for Dmax: HEK-293T, read-out: IKZF2 HiBit Dmax (%)
# Experimental: In Vitro IKZF2 HiBit Assay
# The HiBiT protein tagging system was applied to modified HEK293T Flp-in-HiBiT cells (polyclone) via a CRISPR/Cas9-mediated insertion of the HiBiT peptide tag (Promega™) to the N-terminus of the IKZF2 gene locus (Neon™ transfection system). Test and reference compounds are diluted from 1 mM at 3 folds for 11 doses. 25 nL of diluted compound is transfered to assay plates (Corning3570) using ECHO550, the final DMSO concentration @ 0.1%. The cells are seeded in 3000/25 μL/well to compound plates. It is then incubated for 6 hrs in TC incubator. The amount of Nano-Glo® HiBiT lytic reagent needed to perform the desired experiments is calculated. The Nano-Glo® HiBiT lytic reagent is brought to room temperature. The LgBiT protein is diluted to 1:100 and the Nano-Glo® HiBiT lytic substrate is diluted to 1:50 into an appropriate volume of room temperature Nano-Glo® HiBiT lytic buffer. 15 μL of the detection reagent (or without LgBiT) is dispensed to corresponding well according to the layout. The plate is then shaked for 10 mins at room temperature. After briefly centrifuge, the plate is read on Envision. At the indicated timepoints, the Nano-Glo® HiBiT lytic detection system (Promega™) was utilized for detecting bioluminescence of the HiBiT tag in treated cells: abundance of the tag is proportionate to the level of luminescence. Following normalization to DMSO, dose-response curves were plotted (GraphPad Prism) to determine the concentration points at which 50% of HiBiT-Helios degradation was achieved by each compound. The extent of degradation (range of luminescence) from the highest to lowest concentration points was calculated to determine the Dmax.
# (§1) DC50, A: <1 nM; B: 1-10 nM; C: 10-100 nM; D: 100-1000 nM; E: 1000-10000 nM; F: >10,000 nM. Dmax, A: >80%; B: 60-80%; C: 40-60%; D: 20-40%; E: <20%.
# IKZF1 = IKZF1 (Homo sapiens (Human), UniProt Q13422+Q96SW2); experiment: In vitro IKZF1 HiBit Assay (HEK293T Flp-in-HiBiT-IKZF1 stable cell line); assay type: cell-based; details: HEK293T Flp-in-HiBiT-IKZF1 stable cell line, 6 hrs incubation; for DC50: read-out: IKZF1 HiBit DC50; for Dmax: HEK-293T, read-out: IKZF1 HiBit Dmax (%)
# Sequence of IKZF1 (Q13422 whole entry): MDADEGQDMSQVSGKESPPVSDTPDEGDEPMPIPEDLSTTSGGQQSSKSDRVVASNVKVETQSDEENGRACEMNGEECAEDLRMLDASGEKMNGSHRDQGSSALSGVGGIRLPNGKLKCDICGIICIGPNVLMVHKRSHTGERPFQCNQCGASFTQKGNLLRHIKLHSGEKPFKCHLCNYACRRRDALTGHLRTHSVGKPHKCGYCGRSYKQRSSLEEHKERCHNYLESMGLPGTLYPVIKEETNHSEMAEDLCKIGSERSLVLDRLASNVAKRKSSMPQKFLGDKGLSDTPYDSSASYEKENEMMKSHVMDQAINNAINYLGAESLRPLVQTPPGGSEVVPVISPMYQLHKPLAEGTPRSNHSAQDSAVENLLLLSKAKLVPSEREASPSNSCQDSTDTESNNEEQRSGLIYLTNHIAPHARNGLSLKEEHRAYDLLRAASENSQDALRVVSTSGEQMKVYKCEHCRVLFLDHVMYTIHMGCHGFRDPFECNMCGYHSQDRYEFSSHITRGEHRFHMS
# Sequence of IKZF1 (Q96SW2 whole entry): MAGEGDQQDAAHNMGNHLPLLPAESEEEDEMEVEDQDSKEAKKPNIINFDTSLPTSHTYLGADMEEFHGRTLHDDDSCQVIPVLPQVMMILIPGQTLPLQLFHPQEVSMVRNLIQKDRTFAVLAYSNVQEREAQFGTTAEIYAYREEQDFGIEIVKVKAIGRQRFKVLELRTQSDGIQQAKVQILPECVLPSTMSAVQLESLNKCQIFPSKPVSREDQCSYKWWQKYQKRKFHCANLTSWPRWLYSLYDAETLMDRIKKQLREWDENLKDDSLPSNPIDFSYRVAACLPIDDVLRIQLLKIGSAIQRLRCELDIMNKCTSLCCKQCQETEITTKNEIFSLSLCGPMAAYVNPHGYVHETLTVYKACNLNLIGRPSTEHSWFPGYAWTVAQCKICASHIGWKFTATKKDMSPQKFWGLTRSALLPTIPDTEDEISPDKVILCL
# Sequence of IKZF1 (Q16531 2-1140 partner): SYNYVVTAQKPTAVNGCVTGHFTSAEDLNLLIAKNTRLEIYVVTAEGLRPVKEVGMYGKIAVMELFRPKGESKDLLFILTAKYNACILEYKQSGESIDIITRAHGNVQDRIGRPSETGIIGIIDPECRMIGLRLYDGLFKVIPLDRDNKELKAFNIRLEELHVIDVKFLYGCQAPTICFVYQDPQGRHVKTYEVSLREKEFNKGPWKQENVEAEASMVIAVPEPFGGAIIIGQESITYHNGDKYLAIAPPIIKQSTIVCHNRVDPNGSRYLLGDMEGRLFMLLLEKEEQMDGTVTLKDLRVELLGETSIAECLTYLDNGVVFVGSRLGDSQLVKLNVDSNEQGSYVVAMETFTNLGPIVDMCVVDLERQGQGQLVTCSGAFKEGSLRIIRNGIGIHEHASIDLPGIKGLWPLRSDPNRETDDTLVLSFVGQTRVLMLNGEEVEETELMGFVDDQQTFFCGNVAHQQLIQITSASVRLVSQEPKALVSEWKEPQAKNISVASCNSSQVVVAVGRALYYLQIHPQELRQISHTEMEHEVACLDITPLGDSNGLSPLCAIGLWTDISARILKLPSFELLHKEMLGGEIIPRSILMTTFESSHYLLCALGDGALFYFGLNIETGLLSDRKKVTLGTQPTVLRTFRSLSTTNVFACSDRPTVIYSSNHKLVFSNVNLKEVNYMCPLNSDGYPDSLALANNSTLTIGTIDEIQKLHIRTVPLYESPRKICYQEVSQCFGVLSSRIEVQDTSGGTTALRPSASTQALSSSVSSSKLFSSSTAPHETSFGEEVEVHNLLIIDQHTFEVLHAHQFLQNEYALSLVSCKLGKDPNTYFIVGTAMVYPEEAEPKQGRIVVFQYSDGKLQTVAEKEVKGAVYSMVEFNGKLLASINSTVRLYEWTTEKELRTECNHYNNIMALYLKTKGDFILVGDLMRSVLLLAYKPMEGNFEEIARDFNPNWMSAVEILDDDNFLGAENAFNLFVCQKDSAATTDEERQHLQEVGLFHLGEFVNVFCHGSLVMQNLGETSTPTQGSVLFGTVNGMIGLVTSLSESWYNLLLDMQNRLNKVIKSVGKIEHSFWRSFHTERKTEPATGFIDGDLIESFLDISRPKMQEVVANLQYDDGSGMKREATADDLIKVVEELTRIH
# Experimental: In Vitro IKZF1 HiBit Assay
# The HiBiT protein tagging system was applied to modified Cells: modified HEK293T Flp-in-HiBiT-IKZF1 stable cell line (polyclone) via a CRISPR/Cas9-mediated insertion of the HiBiT peptide tag (Promega™) to the N-terminus of the […] gene locus (Neon™ transfection system).
# 25 nL of diluted compound is transferred to assay plates (Corning3571) using ECHO550, the final DMSO concentration @ 0.1%. The cells are seeded in 3000/25 μL/well to compound plates. The plates are incubated for 6 hrs in TC incubator. The amount of Nano-Glo® HiBiT lytic reagent needed to perform the desired experiments is calculated. The Nano-Glo® HiBiT lytic reagent is brought to room temperature. The LgBiT protein is diluted to 1:100 and the Nano-Glo® HiBiT lytic substrate is brought to 1:50 into an appropriate volume of room temperature Nano-Glo® HiBiT lytic buffer. 15 μL of the detection reagent (or without LgBiT) is dispensed to corresponding well according to the layout. The plate is shaked for 10 mins at room temperature. After briefly centrifuge, the plateis read on Envision. At the indicated timepoints, the Nano-Glo® HiBiT lytic detection system (Promega™) was utilized for detecting bioluminescence of the HiBiT tag in treated cells: abundance of the tag is proportionate to the level of luminescence. Following normalization to DMSO, dose-response curves were plotted (GraphPad Prism) to determine the concentration points at which 50% of HiBiT-Ikaros degradation was achieved by each compound. The extent of degradation (range of luminescence) from the highest to lowest concentration points was calculated to determine the Dmax.
# as §1
# Sequence of IKZF2 (Q9UKS7 whole entry): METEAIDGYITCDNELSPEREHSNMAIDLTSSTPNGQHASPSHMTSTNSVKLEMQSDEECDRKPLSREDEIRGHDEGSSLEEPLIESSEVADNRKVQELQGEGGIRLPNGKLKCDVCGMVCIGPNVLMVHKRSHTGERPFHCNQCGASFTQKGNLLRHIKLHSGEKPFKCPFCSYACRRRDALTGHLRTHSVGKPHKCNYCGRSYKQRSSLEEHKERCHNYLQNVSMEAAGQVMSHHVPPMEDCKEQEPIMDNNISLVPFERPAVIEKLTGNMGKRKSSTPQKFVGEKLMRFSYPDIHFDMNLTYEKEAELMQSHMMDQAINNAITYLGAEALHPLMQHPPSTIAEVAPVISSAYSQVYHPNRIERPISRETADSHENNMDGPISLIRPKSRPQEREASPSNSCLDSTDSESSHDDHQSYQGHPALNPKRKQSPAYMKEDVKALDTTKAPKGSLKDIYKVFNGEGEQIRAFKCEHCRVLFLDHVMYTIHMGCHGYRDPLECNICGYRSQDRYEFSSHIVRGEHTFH
# Sequence of IKZF2 (Q96SW2 whole entry): as the sequence (Q96SW2 whole entry) above
# Sequence of IKZF2 (Q16531 2-1140 partner): as the sequence (Q16531 2-1140 partner) above
DC50 (IKZF2) [µM],Dmax (IKZF2) [%],DC50 (IKZF1) [µM],Dmax (IKZF1) [%],Structure (SMILES)
0.01 to 0.1,40 to 60,> 10,< 20,"O=C1CCC(N2Cc3cc(-c4cc(CN5CCCC5C(F)(F)F)c5ccn(C6COC6)c5n4)ccc3C2=O)C(=O)N1 (centres unmarked) [Example 253, 3-(5-(1-(oxetan-3-yl)-4-((2-(trifluoromethyl)pyrrolidin-1-yl)methyl)-1H-pyrrolo[2,3-b]pyridin-6-yl)-1-oxoisoindolin-2-yl) piperidine-2,6-dione]"
0.01 to 0.1,> 80,> 10,< 20,"CC(=O)N1CC(n2ccc3c(CN4CCCC4)cc(-c4ccc5c(c4)CN(C4CCC(=O)NC4=O)C5=O)nc32)C1 (centres unmarked) [Example 256, 3-(5-(1-(1-acetylazetidin-3-yl)-4-(pyrrolidin-1-ylmethyl)-1H-pyrrolo[2,3-b]pyridin-6-yl)-1-oxoisoindolin-2-yl) piperidine-2,6-dione]"
0.001 to 0.01,> 80,0.001 to 0.01,20 to 40,"O=C1CCC(N2Cc3cc(-c4cc(CN5CCCC5CF)c5ccn(C6COC6)c5n4)ccc3C2=O)C(=O)N1 (centres unmarked) [Example 257, 3-(5-(4-((2-(fluoromethyl)pyrrolidin-1-yl)methyl)-1-(oxetan-3-yl)-1H-pyrrolo[2,3-b]pyridin-6-yl)-1-oxoisoindolin-2-yl) piperidine-2,6-dione]"
0.01 to 0.1,60 to 80,> 10,< 20,"Cc1nc2c(CN3CCCC3)cc(-c3ccc4c(c3)CN(C3CCC(=O)NC3=O)C4=O)nc2n1C1COC1 (centres unmarked) [Example 258, 3-(5-(2-methyl-3-(oxetan-3-yl)-7-(pyrrolidin-1-ylmethyl)-3H-imidazo[4,5-b]pyridin-5-yl)-1-oxoisoindolin-2-yl) piperidine-2,6-dione]"
> 10,< 20,> 10,< 20,"Cc1cc(-c2ccc3c(c2)CN(C2CCC(=O)NC2=O)C3=O)nc2c1nc(CN1CCCC1)n2C1COC1 (centres unmarked) [Example 259, 3-(5-(7-methyl-3-(oxetan-3-yl)-2-(pyrrolidin-1-ylmethyl)-3H-imidazo[4,5-b]pyridin-5-yl)-1-oxoisoindolin-2-yl) piperidine-2,6-dione]"
0.001 to 0.01,60 to 80,> 10,< 20,"CCc1c(-c2ccc3c(c2)CN(C2CCC(=O)NC2=O)C3=O)nc2c(ccn2C2COC2)c1CN1CCCC1 (centres unmarked) [Example 262, 3-(5-(5-ethyl-1-(oxetan-3-yl)-4-(pyrrolidin-1-ylmethyl)-1H-pyrrolo[2,3-b]pyridin-6-yl)-1-oxoisoindolin-2-yl) piperidine-2,6-dione]"
0.001 to 0.01,40 to 60,> 10,< 20,"Cn1cnc(-n2ccc3c(CN4CCCC4)cc(-c4ccc5c(c4)CN([C@H]4CCC(=O)NC4=O)C5=O)nc32)c1 [Example 263, (S)-3-(5-(1-(1-methyl-1H-imidazol-4-yl)-4-(pyrrolidin-1-ylmethyl)-1H-pyrrolo[2,3-b]pyridin-6-yl)-1-oxoisoindolin-2-yl) piperidine-2,6-dione]"
0.001 to 0.01,60 to 80,> 10,< 20,"O=C1CC[C@H](N2Cc3cc(-c4cc(CN5CCCC5)c5ccn(-c6ncco6)c5n4)ccc3C2=O)C(=O)N1 [Example 267, (S)-3-(5-(1-(oxazol-2-yl)-4-(pyrrolidin-1-ylmethyl)-1H-pyrrolo[2,3-b]pyridin-6-yl)-1-oxoisoindolin-2-yl) piperidine-2,6-dione]"
0.001 to 0.01,> 80,0.1 to 1,20 to 40,"O=C1CC[C@H](N2Cc3cc(-c4cc(CN5CCCC5)c5ccn(-c6cn[nH]c6)c5n4)ccc3C2=O)C(=O)N1 [Example 271, (S)-3-(5-(1-(1H-pyrazol-4-yl)-4-(pyrrolidin-1-ylmethyl)-1H-pyrrolo[2,3-b]pyridin-6-yl)-1-oxoisoindolin-2-yl) piperidine-2,6-dione]"
> 10,< 20,> 10,< 20,"O=C1CCC(N2Cc3cc(-c4cc(CN5CCCC5)c5ccn(C6COC6)c5n4)c(Cl)cc3C2=O)C(=O)N1 (centres unmarked) [Example 273, 3-(6-chloro-5-(1-(oxetan-3-yl)-4-(pyrrolidin-1-ylmethyl)-1H-pyrrolo[2,3-b]pyridin-6-yl)-1-oxoisoindolin-2-yl) piperidine-2,6-dione]"
> 10,< 20,> 10,< 20,"COCCOc1ccnc2c(CN3CCCC3)cc(-c3ccc4c(c3)CN(C3CCC(=O)NC3=O)C4=O)nc12 (centres unmarked) [Example 278, 3-(5-(8-(2-methoxyethoxy)-4-(pyrrolidin-1-ylmethyl)-1,5-naphthyridin-2-yl)-1-oxoisoindolin-2-yl) piperidine-2,6-dione]"
0.001 to 0.01,60 to 80,> 10,< 20,"CC(Oc1ccnc2c(CN3CCCC3)cc(-c3ccc4c(c3)CN(C3CCC(=O)NC3=O)C4=O)nc12)C(F)(F)F (centres unmarked) [Example 279, 3-(1-oxo-5-(4-(pyrrolidin-1-ylmethyl)-8-((1,1,1-trifluoropropan-2-yl)oxy)-1,5-naphthyridin-2-yl)isoindolin-2-yl) piperidine-2,6-dione]"
0.001 to 0.01,20 to 40,> 10,< 20,"O=C1CCC(N2Cc3cc(-c4cc(CN5CCCC5)c5nccc(OCCO)c5n4)ccc3C2=O)C(=O)N1 (centres unmarked) [Example 285, 3-(5-(8-(2-hydroxyethoxy)-4-(pyrrolidin-1-ylmethyl)-1,5-naphthyridin-2-yl)-1-oxoisoindolin-2-yl) piperidine-2,6-dione]"
0.001 to 0.01,60 to 80,> 10,< 20,CC(C)Nc1n[nH]c2c(CN3CCC(F)C3)cc(-c3ccc4c(c3F)CN(C3CCC(=O)NC3=O)C4=O)nc12 (centres unmarked) [Example 286]
0.01 to 0.1,60 to 80,0.1 to 1,20 to 40,"CC(C)Nc1n[nH]c2c(CN3CC4(COC4)C3)cc(-c3ccc4c(c3F)CN(C3CCC(=O)NC3=O)C4=O)nc12 (centres unmarked) [Example 287, 3-(5-(7-((2-oxa-6-azaspiro[3.3]heptan-6-yl)methyl)-3-(isopropylamino)-1H-pyrazolo[4,3-b]pyridin-5-yl)-4-fluoro-1-oxoisoindolin-2-yl) piperidine-2,6-dione]"
1 to 10,20 to 40,> 10,< 20,"CC(C)Nc1n[nH]c2c(CN3CCCC3)cc(-c3ccc4c(c3)CN(C3(C)CCC(=O)NC3=O)C4=O)nc12 (centres unmarked) [Example 294, 3-(5-(3-(isopropylamino)-7-(pyrrolidin-1-ylmethyl)-1H-pyrazolo[4,3-b]pyridin-5-yl)-1-oxoisoindolin-2-yl)-3-methylpiperidine-2,6-dione]"

Structure (SMILES),DC50 (IKZF2) [µM],Dmax (IKZF2) [%],DC50 (IKZF1) [µM],Dmax (IKZF1) [%]
"CO[C@H]1C[C@@H](Oc2ccnc3c(CN4CCCC4)cc(-c4ccc5c(c4)CN(C4CCC(=O)NC4=O)C5=O)nc23)C1 (some centres unmarked) [Example 281, 3-(5-(8-((1s,3s)-3-methoxycyclobutoxy)-4-(pyrrolidin-1-ylmethyl)-1,5-naphthyridin-2-yl)-1-oxoisoindolin-2-yl) piperidine-2,6-dione]",0.01 to 0.1,60 to 80,> 10,< 20
